# Patent US20170216350A1, “COMPOSITIONS OF ALUMINUM FLUORIDE AND METHODS OF USE THEREOF FOR THE TREATMENT AND PREVENTION OF ACTINIC KERATOSIS AND SUN-INDUCED DAMAGES” (priority 2012, published 2017)
# System: actinic keratosis lesions
# Details: twice daily
# Source text: A cream was applied on dry skin, on the whole forehead, twice daily. Aluminum fluoride at 0.30% w/w was used in a base cream containing Caprylic/Capric acids, sulfur, resorcinol, medium chain triglycerides, PEG 400, Pluronic F127, Ylang ylang oil and water .
# Patient 2 is a person having actinic keratosis on their nose, in particular, two ulcers of about 1 mm each. The aluminum fluoride composition was at 0.30% w/w, and the base cream was modified to a cream containing deionized water, arachidyl alcohol, behenyl alcohol, arachidyl glucoside, montanoV 202, cetearyl alcohol, capric/caprilic triglyceride, isopropyl palmitate, steareth-2, dimethicon, steareth-20, allantoin, propylene glycol, Methylisothiazolinone (sheromix MT) and sodium benzoate.
# A cream was applied on dry skin, on the cheek, twice daily. Aluminum fluoride at 0.30% w/w was used in a base cream containing Caprylic/Capric triglycerides, a polyethylene glycol component, hydrophilic non-ionic surfactant and purified water.
# A cream was applied on dry skin, on the whole forehead, twice daily. Aluminum fluoride at 0.30% w/w was used in a base cream containing Caprylic/Capric triglycerides, a polyethylene glycol component, hydrophilic non-ionic surfactant and purified water.
substance,measurement,setting,value
aluminum fluoride,actinic keratosis lesions (FIG. 1A/1B),"Patient 1, 8th decade, 0.30% w/w in base cream (Caprylic/Capric acids, sulfur, resorcinol, MCT, PEG 400, Pluronic F127), whole forehead, 3 weeks",gradual disappearance of lesions
same,vascularization (FIG. 2(ii) compared to FIG. 2(i)),"Patient 2, 0.30% w/w in modified base cream",major decrease in vascularization
same,actinic keratosis ulcers on nose (two ulcers of about 1 mm each),"Patient 2, 0.30% w/w in modified base cream, after approximately three weeks",closure of the first ulcer and disappearance of the second ulcer
same,actinic keratosis lesions (FIG. 3A/3B),"Patient 6, 6th decade, 0.30% w/w in base cream (Caprylic/Capric triglycerides, polyethylene glycol component, non-ionic surfactant, water), cheek, 12 weeks",disappearance of lesions
same,actinic keratosis lesions (FIG. 4A/4B),"Patient 13, 6th decade, 0.30% w/w in base cream (Caprylic/Capric triglycerides, polyethylene glycol component, non-ionic surfactant, water), whole forehead, 10 weeks",disappearance of lesions
